Laboratory results published in publication PMC7156724, “Potent BRD4 inhibitor suppresses cancer cell-macrophage interaction” (Nature Communications, 2020).
Several values for one entry are separate records, joined by “and”; a condition that tells them apart may be missing. Equal values may be shown once.

What was measured:
TAMs = assay: Transwell co-culture of pretreated A2780 cells and TAMs with CSF1 or anti-CSF1R antibodies; assay type: cell-based, mouse; settings: co-culture with pretreated A2780 cells, MCSF-1 10ng/ml where added
Protocol: Fig. 6 CSF1/CSF1R signaling is critical for the tumor inhibitory effects of NHWD-870 and CSF1 induced ovarian cancer growth depends on macrophages. a Number of TAMs after treatment with the indicated concentration of CSF1 for 48 h. Data are presented as mean ± SEM from three independent experiments. b–d Schematics of the experiments (b). A2780 cells (pre-treated with DMSO or 100 nM NHWD-870 for 48 h) were seeded into the top chamber (transwell size: 0.4 μm), and TAMs (Mac, 40,000 cells per 24-well) in medium with PBS or 10 ng/ml CSF1 (c), or 50 ng/ml IgG or anti-CSF1R antibodies (d), were seeded into the bottom chamber. Shown are quantification of TAMs (c, d). Data are presented as mean ± SEM from three independent experiments. e Representative western blot analysis of A2780 cells stably transfected with CSF1 or empty vector (EV). Selected from three independent experiments. f Schematics of the animal experiments using an orthotopic mouse OC model, established by intraperitoneally injecting 1 × 10^6 (g–j) or 2 × 10^6 (k–m) human A2780 cells overexpressing CSF1 or control into female recipient nude mice. Mice were then treated with/without liposomal clodronate (LC) for 45 days (g–j) or treated with/without NHWD-870 (PO, QD, 3 mg/kg) for 37 days (k–m). g Increased mouse body weight was measured at the indicated time points (day 0-45 after LC treatment). h–j Net tumor weight (h), ascitic fluid volumes (i) tumor implantations in peritoneum, omentum and pevic cavity (j) were measured at day 45 from LC treatment. k–m Net tumor weight (k), ascitic fluid volumes (l) tumor implantations in peritoneum, omentum and pevic cavity (m) were measured at day 37 after NHWD-870 treatment. For g–m, data are presented as mean ± SEM from five different mice. p values were calculated using two-tailed, unpaired t tests in this figure. n.s, not significant; *p < 0.05; **p < 0.01; and ***p < 0.001. Source data are provided as a Source Data file.
CD45^+CD11b^+F4/80^+ TAMs were isolated from peritoneal metastasis of A2780 tumor-bearing mice and cultured in RPMI-1640 supplemented with 10% FBS, 1% penicillin/streptomycin, and 0–50 ng/ml CSF1 (R&D Systems) as indicated according to standard protocols. In the cancer cell-macrophage co-culture experiments, CSF1 was not added. In the transwell (Corning, pore size, 0.4 μm) co-culture experiments, tumor cells were placed into the upper chamber, and TAMs were seeded into the lower chamber.

[1] = system: monocytes in peripheral blood; assay: Complete blood cell counting of monocytes in B16F10 tumor bearing mice; assay type: in vivo, mouse; settings: B16F10 melanoma tumor bearing mice, 11 days
Protocol: Reviewer Fig 3. […] B16F10 melanoma […]
tumor bearing mice (n=5) treated with the indicated compounds for 11 days. Monocytes in blood of DMSO and NHWD-870-treated mice were analyzed by complete blood cell counting (CBC). […]
tumor cells blocks mCSF expression and blocks proliferation of macrophages ex vivo. It is not possible from these studies to conclude if NHWD-870 mediated inhibition of mCSF expression is responsible for […]
In part, this is because the culture conditions for this unusual assay have not been described in the methods or text sections. What are the components of the culture medium? Does it include serum, mCSF and other growth factors? A more direct method of testing the effect of tumor cell expressed mCSF on TAMs ex vivo is to incubate TAMs in defined tumor cell conditioned media from untreated and treated tumor cells (the media placed on the macrophages should not include the drug, however). However, there is one other key weakness to these studies that […]
It is thus not clear if absence of mCSF or products from dying cells suppress macrophage growth as colonies ex vivo. […]
experiments, which has been added and addressed in response to comment #4. We agree that the experiments can be done with conditioned media. […]
Shown are schematics of the experiments (m) and quantification of TAMs (n, o). […]

Cc1nnn(C)c1-c1cnc2c3c4cnn(C)c4ccc3n([C@H](c3ccccc3)C3CCOCC3)c2c1 [NHWD-870] was tested, and the “Number of TAMs (Fig.6c)” value (TAMs; time 0) was 5, the “Number of TAMs (Fig.6c)” value (TAMs; time 24) was 5.5 and 5.2 and 6.2 and the “Number of TAMs (Fig.6c)” value (TAMs; time 48) was 6.8 and 6.3 and 7.4. For the same compound, the “Number of TAMs (Fig.6c)” value (TAMs; time 72) was 8.9 and 9.5 and 8.5 and the “effects on monocytes in peripheral blood” value [1] was “relatively mild effects”.
